Source: the NIST ThermoML archive (doi:10.1021/je201334p)

Experiments:
[1] = xn = mol fraction of the nth substance listed; details: 101 kPa, Liquid; for speed of sound: Sing-around technique in a fixed-path interferometer; for mass density: Vibrating tube method
[2] = refractive index (Na D-line) (dimensionless); xn = mol fraction of the nth substance listed; details: 101 kPa, Liquid, Standard Abbe refractometry

COS(=O)(=O)[O-].C[n+]1ccccc1 [1-methylpyridinium methylsulfate] + O
Details | mass density, 288.15 K [kg/m3] | mass density, 298.15 K [kg/m3] | mass density, 308.15 K [kg/m3] | refractive index, 288.15 K | refractive index, 298.15 K | refractive index, 308.15 K | speed of sound, 288.15 K [m/s] | speed of sound, 298.15 K [m/s] | speed of sound, 308.15 K [m/s]
[1], x2 = 0 | 1352.86 | 1346.12 | 1339.37 | – | – | – | 1901.1 | 1875.8 | 1852.4
[1], x2 = 0.0574 | 1350.36 | 1343.61 | 1336.86 | – | – | – | 1900.5 | 1876 | 1852.3
[1], x2 = 0.073 | 1349.61 | 1342.85 | 1336.11 | – | – | – | 1901.4 | 1876.4 | 1852.7
[1], x2 = 0.1111 | 1347.74 | 1340.98 | 1334.23 | – | – | – | 1901.9 | 1877.4 | 1853.7
[1], x2 = 0.1927 | 1343.32 | 1336.56 | 1329.82 | – | – | – | 1903.2 | 1879.2 | 1855.8
[1], x2 = 0.2941 | 1336.61 | 1329.85 | 1323.12 | – | – | – | 1906.5 | 1882.6 | 1859.2
[1], x2 = 0.4005 | 1327.54 | 1320.8 | 1314.09 | – | – | – | 1909.5 | 1886.2 | 1863.4
[1], x2 = 0.4996 | 1316.5 | 1309.79 | 1303.09 | – | – | – | 1912.2 | 1889.5 | 1867
[1], x2 = 0.6077 | 1299.41 | 1292.74 | 1286.07 | – | – | – | 1913.2 | 1891 | 1868.9
[1], x2 = 0.7064 | 1276.09 | 1269.51 | 1262.91 | – | – | – | 1906.8 | 1885.4 | 1863.4
[1], x2 = 0.8058 | 1237.51 | 1231.17 | 1224.76 | – | – | – | 1878 | 1859.2 | 1837.7
[1], x2 = 0.901 | 1168.89 | 1163.31 | 1157.51 | – | – | – | 1782.3 | 1772.7 | 1760.4
[1], x2 = 0.9497 | 1107.24 | 1102.67 | 1097.68 | – | – | – | 1670.4 | 1673.5 | 1673.4
[1], x2 = 0.9645 | 1081.91 | 1077.85 | 1073.27 | – | – | – | 1622.5 | 1633.3 | 1637.2
[2], x2 = 0 | – | – | – | 1.51603 | 1.5134 | 1.51077 | – | – | –
[2], x2 = 0.0574 | – | – | – | 1.51462 | 1.51199 | 1.50937 | – | – | –
[2], x2 = 0.073 | – | – | – | 1.51423 | 1.51159 | 1.50895 | – | – | –
[2], x2 = 0.1111 | – | – | – | 1.51315 | 1.51052 | 1.50794 | – | – | –
[2], x2 = 0.1927 | – | – | – | 1.51059 | 1.50803 | 1.50539 | – | – | –
[2], x2 = 0.2941 | – | – | – | 1.50679 | 1.50426 | 1.5017 | – | – | –
[2], x2 = 0.4005 | – | – | – | 1.50177 | 1.49921 | 1.49665 | – | – | –
[2], x2 = 0.4996 | – | – | – | 1.49567 | 1.49314 | 1.49057 | – | – | –
[2], x2 = 0.6077 | – | – | – | 1.48632 | 1.48384 | 1.48134 | – | – | –
[2], x2 = 0.7064 | – | – | – | 1.47388 | 1.47142 | 1.46886 | – | – | –
[2], x2 = 0.8058 | – | – | – | 1.45378 | 1.45141 | 1.44897 | – | – | –
[2], x2 = 0.901 | – | – | – | 1.41884 | 1.4167 | 1.41447 | – | – | –
[2], x2 = 0.9497 | – | – | – | 1.38778 | 1.38593 | 1.38397 | – | – | –
[2], x2 = 0.9645 | – | – | – | 1.37506 | 1.37336 | 1.37158 | – | – | –
